Source: US20140206678A1, “INHIBITORS OF MTOR KINASE AS ANTI -VIRAL AGENT” (KADMON CORPORATION, LLC, priority 2011, published 2014)

Tests used:
[1] = system: MCMV; test: MCMV replication in mouse embryo fibroblasts, TCID50; type: cell-based, murine cytomegalovirus; conditions: Torin1 250 nM
[2] = system: HCMV; test: HCMV multistep growth in serum-starved human fibroblasts, cell-free virus by TCID50; type: cell-based, human cytomegalovirus
[3] = system: HSV-1; test: HSV-1 replication in MEFs, TCID50; type: cell-based, herpes simplex virus type 1; conditions: 72 hpi
[4] = system: HCMV DNA; test: HCMV viral DNA in infected fibroblasts by qPCR; type: cell-based, human cytomegalovirus
Method: (§1) FIG. 2. […] Serum-starved confluent fibroblasts were infected with HCMV at a multiplicity of 3 PFU/cell. […] Control cultures received the vehicle in which Torin1 was dissolved (NT). At 2 hpi cells were harvested, and cell-associated viral DNA was quantified by real-time PCR analysis. Error bars represent the standard errors of the means from two independent experiments performed in duplicate. […] The level of IE1 was determined at 6 hpi by a Western blot assay using an IE1-specific monoclonal antibody. The image is representative of two independent experiments. […] The expression of a GFP marker gene present in the viral genome was monitored at 24 h after infection in the presence or absence of drug.
(§2) FIG. 3. […] Cells were harvested at the indicated times, and the accumulation of the indicated proteins was analyzed by Western blotting. […] At the indicated times DNA was isolated, and viral DNA was quantified by qPCR. Equivalent amounts of DNA were analyzed for each sample, and the results are normalized to the level of actin DNA per sample. […] At the indicated times the amount of UL99 RNA was determined by qPCR, and the results are normalized to the amount of actin RNA in each sample. […]
Briefly, primary human fibroblasts were infected with BADinGFP at a multiplicity of 0.05 PFU/cell. […] For each sample, DNA was quantified by using a NanoDrop spectrophotometer (Thermo Scientific). […]

[5] = system: UL99 mRNA; test: UL99 late transcript level by qPCR in HCMV-infected fibroblasts; type: cell-based, human cytomegalovirus; conditions: rapamycin 20 nM, Torin1 250 nM; 3 PFU/cell
[6] = system: mTORC1 targets (4EBP1, rpS6); test: Phosphorylation of mTORC1 targets in MCMV-infected MEFs (Western blot); type: cell-based, mouse; conditions: Torin1 250 nM; for 4EBP1 phosphorylation: MCMV
[7] = system: mTORC1 targets (4EBP1, rpS6); test: Phosphorylation of mTORC1 targets in HCMV-infected fibroblasts (Western blot); type: cell-based, human; conditions: rapamycin 20 nM, Torin1 250 nM
[8] = system: eIF4F complex; test: Cap-binding (eIF4F) complex in MCMV-infected MEFs, m7G-Sepharose; type: cell-based, mouse; conditions: Torin1 250 nM, 48 hpi
Method: FIG. 7. […] At 6 days post infection the amount of MCMV in cell-free supernatants was determined by the TCID50 method. The error bars represent the standard errors of the means from three independent experiments, each performed in duplicate. […] At 48 hpi equal amounts of protein from cell lysates were incubated with m^7G-Sepharose. The presence of eIF4F complex components bound by the cap analog was determined by Western blotting. The results are representative of two independent experiments.

[9] = system: HCMV proteins IE1, pUL44, pUL99; test: Western blot of HCMV proteins in infected fibroblasts; type: cell-based, human cytomegalovirus; conditions: 6 to 96 hpi; rapamycin 20 nM, Torin1 250 nM; 3 PFU/cell
Method: as §1, §2
Antibodies to pUL99 have been described previously (Silva, et al. J. Virol. (2003) 77:10594-10605). In addition, accumulation of HCMV DNA was monitored following infection using the methods described above.

[10] = 48 hpi, rapamycin 20 nM, LY294002 20 μM

With `CCC(=O)N1CCN(c2ccc(-n3c(=O)ccc4cnc5ccc(-c6cnc7ccccc7c6)cc5c43)cc2C(F)(F)F)CC1` [Torin1] the MCMV replication ([1]; 4EBP1-null MEFs, rapamycin 20 nM, 6 days post infection) was “no longer capable of inhibiting”, the MCMV replication ([1]; Akt1/Akt2-null MEFs) was “Torin-sensitive” and the MCMV replication ([1]; Rictor-null MEFs, 6 days post infection) was “effectively inhibited”. The MCMV replication ([1]; wild-type MEFs, rapamycin 20 nM, 0.05 PFU/cell) was “inhibited”, the IC50 ([2]; Human betaherpesvirus 5, Fibroblast, 192 h, read-out: IC50 for blocking production of HCMV progeny) was roughly 60 nM and the “HCMV replication after removal of drug” value ([2]; cells had received 100 nM Torin1, 16 days post infection) was “completely recovered”. For the same compound, the “HCMV replication after removal of drug” value ([2]; cells had received 250 nM drug, 16 days post infection) was “substantially recovered”, the “HCMV replication after removal of drug” value ([2]; cultures initially received 1 mM drug, 16 days post infection) was “partially recovered” and the “reduction of HCMV yield” value ([2]; day 10, rapamycin 20 nM, Torin1 250 nM, 0.05 PFU/cell) was “about 160 fold”. The “increase in virus yield after reversal of an 8-day Torin1 treatment” value ([2]; drug release, 16 days post infection) was greater than 100 fold, the HSV-1 replication ([3]; MEFs, rapamycin 20 nM, Torin1 250 nM, 0.05 PFU/cell) was “inhibited” and the “production of HSV-1” value ([3]; cells lacking 4EBP1) was “failed to inhibit”. The “level of cell-associated viral DNA” value ([4]; 2 hpi, 250 nM, pretreated 24 h or after adsorption, 3 PFU/cell) was “not influenced”, the “reduction of viral DNA accumulation” value ([4]; 96 hpi, Torin1 250 nM, 0.05 PFU/cell) was 150 fold and the “levels of UL99 mRNA” value [5] was “decreased”. The “phosphorylation of 4EBP1 in MCMV-infected MEFs” value [6, 10] was “inhibited”, the “phosphorylation of rpS6 in MCMV-infected MEFs” value [6, 10] was “completely inhibited” and the 4EBP1 phosphorylation ([6]; Akt1/Akt2-null MEFs) was “inhibited”. The 4EBP1 phosphorylation ([6]; Rictor-null MEFs) was “effectively inhibited”, the “phosphorylation of 4EBP1 during HCMV infection” value [7] was “substantially blocked” and the “induction of rpS6 phosphorylation during HCMV infection” value ([7]; 48 hpi) was “markedly inhibited”. The “formation of the eIF4F complex” value ([8]; 4EBP1-null cells) was “no such effect was observed”, the “formation of the eIF4F complex” value ([8]; control cells) was “inhibited the formation” and the “accumulation of immediate-early protein IE1” value [9] was “to a limited extent”. The “accumulation of late protein pUL99” value [9] was “dramatically reduced”.
